Results taken from the supplement of paper PMC4862054.

Columns and labels:
Test in all cases: normalised response (% of control), CellTox Green; higher = less cell death (100 = DMSO, 0 = benzethonium chloride kill control)
Settings in all cases: incubation time: 72 h
MDA-MB-453 = test system: MDA-MB-453
Summary of the method: (§1)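 CellTox Green fluorescence (485/520 nm) and, after 10 min at room temperature, CellTiter-Glo luminescence were read from breast cancer cell lines incubated 72 h in 384-well plates. Cells were seeded as 20 µl suspension onto compound at 5 concentrations in 10-fold steps over a 10,000-fold range chosen per compound. Each plate was normalised to 0.1 % DMSO (100) and a positive kill control (0). Values are normalised signals, one per concentration.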

CAL-51 = test system: CAL-51
Summary of the method: as §1

HDQ-P1 = test system: HDQ-P1
Summary of the method: as §1

BT-549 = test system: BT-549
Summary of the method: as §1

MFM-223 = test system: MFM-223
Summary of the method: as §1

MDA-MB-436 = test system: MDA-MB-436
Summary of the method: as §1

CAL-148 = test system: CAL-148
Summary of the method: as §1

BT-474 = test system: BT-474
Summary of the method: as §1

MCF-10A = test system: MCF-10A
Summary of the method: as §1

HCC1599 = test system: HCC1599
Summary of the method: as §1

DU-4475 = test system: DU-4475
Summary of the method: as §1

HCC1143 = test system: HCC1143
Summary of the method: as §1

HCC1937 = test system: HCC1937
Summary of the method: as §1

CAL-85-1 = test system: CAL-85-1
Summary of the method: as §1

MDA-MB-468 = test system: MDA-MB-468
Summary of the method: as §1

MDA-MB-231 = test system: MDA-MB-231
Summary of the method: as §1

CAL-120 = test system: CAL-120
Summary of the method: as §1

Hs578T = test system: Hs578T
Summary of the method: as §1

Row | Compound | normalised response (MDA-MB-453) | normalised response (CAL-51) | normalised response (HDQ-P1) | normalised response (BT-549) | normalised response (MFM-223) | normalised response (MDA-MB-436) | normalised response (CAL-148) | normalised response (BT-474) | normalised response (MCF-10A) | normalised response (HCC1599) | normalised response (DU-4475) | normalised response (HCC1143) | normalised response (HCC1937) | normalised response (CAL-85-1) | normalised response (MDA-MB-468) | normalised response (MDA-MB-231) | normalised response (CAL-120) | normalised response (Hs578T)
1 | CNC(=O)c1cc(Oc2ccc(NC(=O)Nc3ccc(Cl)c(C(F)(F)F)c3)cc2)ccn1 [Sorafenib] (100 nM) | 95.1% | 87% | 67.2% | 114% | 101% | 105% | 73% | 96.8% | 99.8% | 93.7% | 99.9% | 83.6% | 92% | 107% | 118% | 101% | 99.5% | 
2 | COc1ccc(-c2cc3c(C)nc(N)nc3n([C@H]3CC[C@H](OCCO)CC3)c2=O)cn1 (1000 nM) | 84.2% | 43.9% | 84.7% | 115% | 81% | 113% | 51.2% | 49.8% | 93.2% | 90.4% | 86.2% | 79.8% | -51.2% | 79.9% | 123% | 76.8% | 98.5% | 101%
3 | Nc1ccccc1NC(=O)c1ccc(CNc2nccc(-c3cccnc3)n2)cc1 [Mocetinostat] (1000 nM) | 99.2% | 67% |  | 103% | 92.4% | 66.7% | 98.8% | 96% | 106% | 83.2% | 93% | 98.2% | 105% | 101% | 62.9% | 81.3% | 95.2% | 59.8%
4 | Nc1ccccc1NC(=O)c1ccc(CNc2nccc(-c3cccnc3)n2)cc1 [Mocetinostat] (10000 nM) | 92.3% | 7.12% | -1.8% | 34.1% | 60.3% | -9.9% | 35.8% | 34.8% | 84% | 73.8% | 72.3% | 63.6% | 69.9% | -38.3% | -170% | -24.5% | 17.4% | 48.6%
5 | O=C1c2c(O)ccc(O)c2C(=O)c2c(NCCNCCO)ccc(NCCNCCO)c21 [Mitoxantrone] (1000 nM) | 112% | 60% | 98.8% | 108% | 88% | 78% | 52.5% | 95.7% | 112% | 112% | 94.2% | 119% | 117% | 104% | 217% | 119% | 107% | 112%
6 | COc1nc(N)nc2c1ncn2[C@@H]1O[C@H](CO)[C@@H](O)[C@@H]1O [Nelarabine] (1000 nM) | 104% | 99.3% | 78.7% | 128% | 89.8% | 88.7% | 87.2% | 96.4% | 98.8% | 90.3% | 94.7% |  | 100% | 108% | 102% | 106% | 89% | 107%
7 | C[C@]12C=CC(=O)C=C1CC[C@@H]1[C@@H]2[C@@H](O)C[C@@]2(C)[C@H]1CC[C@]2(O)C(=O)CO [Prednisolone] (10000 nM) | 94.6% | 102% | 57.2% | 90.8% | 99.7% | 60.2% | 101% | 101% | 100% | 97.9% | 100% | 51% | 56.3% | 84.1% | 154% | 150% | 99.8% | 66.8%
8 | CC[C@@]1(O)C(=O)OCc2c1cc1n(c2=O)Cc2cc3c(CN(C)C)c(O)ccc3nc2-1 [Topotecan] (1000 nM) | 108% | 18.9% |  | 90.6% | 90.7% | 71% | 12% | 96.6% | 92.2% | 81.3% | 83.2% | 76.7% | 95.1% | 67.8% | -478% |  | 85% | 
9 | CNC(=O)c1cc(Oc2ccc(NC(=O)Nc3ccc(Cl)c(C(F)(F)F)c3)cc2)ccn1 [Sorafenib] (1000 nM) | 102% | 115% | 103% | 111% | 92.8% | 87.5% | 74.5% | 100% | 89% | 97.5% | 97.7% | 101% | 99.2% | 89.9% | 70.1% | 100% | 101% | 118%
10 | Cc1c(CN2CCN(C(=O)[C@H](C)O)CC2)sc2c(N3CCOCC3)nc(-c3cnc(N)nc3)nc12 [GDC-0980] (10000 nM) | 86.7% | 18% | 41.6% | 95.2% | -39.7% | 98.5% | 49.1% | 53.5% | 88.3% | 96.9% | 85.5% | 47% | 101% | 58% | 119% | 98.1% | 104% | 98.8%
11 | C[C@]12C=CC(=O)C=C1CC[C@@H]1[C@@H]2[C@@H](O)C[C@@]2(C)[C@H]1CC[C@]2(O)C(=O)CO [Prednisolone] (1000 nM) |  | 113% |  | 116% | 95.8% | 54.9% | 104% | 99.6% | 101% | 100% | 102% | 112% | 122% | 98.9% | 156% | 142% | 98.7% | 104%
12 | C[C@]12O[C@H](C[C@]1(O)CO)n1c3ccccc3c3c4c(c5c6ccccc6n2c5c31)CNC4=O [Lestaurtinib] (100 nM) | 102% | 56.4% | 105% | 99.7% | 86.4% | 66.7% | 95.8% | 94% | 107% | 74.8% | 91.5% | 116% | 81.8% | 83.4% | 69.6% |  | 96.2% | 96.2%
13 | CCC/C=C/C=C/C(=O)O[C@H]1/C(=C/C(=O)OC)C[C@H]2C[C@H]([C@@H](C)O)OC(=O)C[C@H](O)C[C@@H]3C[C@H](OC(C)=O)C(C)(C)[C@](O)(C[C@@H]4C/C(=C/C(=O)OC)C[C@H](/C=C/C(C)(C)[C@]1(O)O2)O4)O3 [Bryostatin 1] (10 nM) | 99.9% | 92% |  | 139% | 88% | 74.1% | 108% | 106% | 109% | 115% | 106% | 116% | 83.2% | 91.3% | 116% | 117% | 102% | 109%
14 | CCC/C=C/C=C/C(=O)O[C@H]1/C(=C/C(=O)OC)C[C@H]2C[C@H]([C@@H](C)O)OC(=O)C[C@H](O)C[C@@H]3C[C@H](OC(C)=O)C(C)(C)[C@](O)(C[C@@H]4C/C(=C/C(=O)OC)C[C@H](/C=C/C(C)(C)[C@]1(O)O2)O4)O3 [Bryostatin 1] (100 nM) | 104% | 104% | 73.7% | 122% | 104% |  | 105% | 93.1% | 103% | 118% | 112% | 53.9% |  | 64.6% | 150% | 120% | 99.8% | 114%
15 | CO[C@@H](C(=O)N1Cc2[nH]nc(NC(=O)c3ccc(N4CCN(C)CC4)cc3)c2C1)c1ccccc1 [Danusertib] (1000 nM) | 84.9% | 57.8% | 105% | 112% | 92.9% |  | 45.1% | 102% | 110% | 104% | 97.3% | 66.9% | 129% | 97.5% | 51.4% | 101% | 94% | 
16 | O=C(CCBr)N1CCN(C(=O)CCBr)CC1 [Pipobroman] (1000 nM) | 90.5% | 106% | 100% | 98.2% | 94% | 102% |  | 100% | 103% | 93.6% | 101% |  | 93.2% | 106% | 84.6% | 96.7% | 98.9% | 91.2%
17 | O=C(CCBr)N1CCN(C(=O)CCBr)CC1 [Pipobroman] (10000 nM) | 96.5% | 101% | 104% | 98.9% |  | 101% | 96.9% | 100% | 88.8% | 97.4% | 96.9% |  | 105% | 77.6% | 134% | 83.1% | 91.5% | 128%
18 | Cc1nc(Nc2ncc(C(=O)Nc3c(C)cccc3Cl)s2)cc(N2CCN(CCO)CC2)n1 [Dasatinib] (1000 nM) | 92.5% | 75.6% | 81.3% | 39.7% |  | 97% | 104% | 103% | 63% | 102% | 96.6% | 107% | 91.4% | 43.1% | 99.7% | 35% | 100% | 5.15%
19 | Nc1cccc2c1CN(C1CCC(=O)NC1=O)C2=O (stereo not drawn) [Lenalidomide] (1000 nM) | 103% | 104% | 104% | 125% | 99.6% | 88.4% |  | 99.8% | 108% | 105% | 103% | 111% | 113% | 92.2% | 122% | 109% | 96.9% | 94.5%
20 | CO[C@@H](C(=O)N1Cc2[nH]nc(NC(=O)c3ccc(N4CCN(C)CC4)cc3)c2C1)c1ccccc1 [Danusertib] (10000 nM) | 112% | 22.9% | 48% | 53.1% | 94.9% | 75.7% | 90.5% | 91.6% | 57.6% | 106% | 102% | 127% |  | 67.3% | 55.9% | 93.2% | 28.7% | -40.1%
21 | Nc1cccc2c1CN(C1CCC(=O)NC1=O)C2=O (stereo not drawn) [Lenalidomide] (10000 nM) | 99.8% | 102% | 98.5% | 117% | 80.3% | 95.5% |  | 102% | 91.8% | 103% | 100% | 119% | 97.7% | 90.7% | 138% | 108% | 97.7% | 127%
22 | COc1cc(CCc2cc(NC(=O)c3ccc(N4CC(C)NC(C)C4)cc3)n[nH]2)cc(OC)c1 (stereo not drawn) [AZD4547] (1000 nM) | 103% | 96.6% |  | 90% | 95.5% | 95.4% | 57.8% | 99.9% | 63.9% | 100% | 98.5% | 59.4% | 88.6% | 126% | 190% | 110% | 89.5% | 115%
